According to patent US6803195B1, “Facile detection of cancer and cancer risk based on level of coordination between alleles” (Ramot At Tel-Aviv University Ltd., priority 1999, dated 2004):

Legend:
Assay type in all cases: cell-based, human
[1] = test system: lymphocytes of control subjects (BPH); experiment: FISH replication assay, lymphocytes of benign prostate hyperplasia (BPH) subjects grown with 5-azacytidine (Example 7); conditions: BPH samples; all tested loci; 10^-7M AZA
Method: (§1) Each sample was set up for short-term culturing in F10 medium supplemented with 20% fetal calf serum (FCS), 3% phytohemagglutinin (PHA), 0.2% heparin, and 1% antibiotics (a standard solution of penicillin and streptomycin). Cultures were incubated at 37° C. for 72 hours and then colchicine (final concentration 0.1 μg/ml) was added to the culture for one hour, followed by hypotonic treatment (0.075 M KC1 at 37° C. for 15 minutes) and four washes each with a fresh cold 3:1 methanol: acetic acid solution. The cell suspensions were stored at −20° C. until used for fluorescence in situ hybridization (FISH). […]
Slides were analyzed blindly on an Olympus BH2 fluorescent microscope, using a triple band-pass filter (Chroma technology). […] For each sample and for each treatment the frequency of SD, SS and DD cells out of the total population of cells containing two fluorescent signals was recorded (for details please see Dotan et al, Genes, Chromosomes & Cancer 27:270-277, 2000). For the determination of allelic losses at least 200 cells from the same preparation used for replication studied were analyzed for each tested sample.

[2] = test system: lymphocytes of prostate cancer patients (CAP) and control subjects (BPH); experiment: FISH determination of allelic loss in CAP and BPH lymphocytes with and without 5-azacytidine (Example 7); conditions: CAP samples 1-6 and BPH samples 1-6, presence vs absence of AZA
Method: as §1
Slides were analyzed blindly on an Olympus BH2 fluorescent microscope, using a triple band-pass filter (Chroma technology). […] For each sample and for each treatment the frequency of SD, SS and DD cells out of the total population of cells containing two fluorescent signals was recorded (for details please see Dotan et al, Genes, Chromosomes & Cancer 27:270-277, 2000). For the determination of allelic losses at least 200 cells from the same preparation used for replication studied were analyzed for each tested sample. […]

[3] = test system: CAD samples (hematological malignancy patients at diagnosis); experiment: FISH replication assay, cultures of hematological malignancy patients (CAD) with chromatin modifiers (Example 10); conditions: for frequency (%) of SD cells, Mean: CAD + AZA (10^-7M), N = 20
From the text: (§2) Cultures were set up from 44 healthy individuals (hereafter called CON) and 20 hematological malignancy patients at diagnosis (hereafter termed CAD). For 20 of the CON samples and all of the CAD samples peripheral in addition to the setting up cultures in the regular growth medium, cultures were set up in medium containing 5-azacytidine (10^−7M; Sigma, USA; hereafter referred to as AZA) a demethylating agent. In addition, cultures from 6 CON and 10 CAD samples were set up in medium containing a deacetylating agents, either Trichostatin A (33 nM; Sigma, USA; hereafter referred to as TSA) or Sodium Butirate (1 nM; Sigma, USA; hereafter referred to as NB), two well described acetylating agents.
(§3) These samples were hybridized with two commercial probes: the AML1 probe (LSI 21, […]) and the α-satellite probe specific for centromere 17 (32-130017, hereafter marked as CEN17). The results are summarized in Table 1 giving the number of samples hybridized with each probe (N), Mean and standard deviation (stdev) as well as the p value obtained using two tailed student's t-test (Microsoft Office 98).

[4] = test system: CON samples (healthy individuals); experiment: FISH replication assay, cultures of healthy individuals (CON) with chromatin modifiers (Example 10); conditions: for frequency (%) of SD cells, Mean: CON + AZA (10^-7M), N = 20
From the text: as §2, §3

[5] = cultured cells with chromatin modifier

## Nc1ncn([C@@H]2O[C@H](CO)[C@@H](O)[C@H]2O)c(=O)n1 [AZA, 5-azacytidine]
[1]
  effect of AZA on the SD values: no significant effect
[2]
  frequency of cells showing a loss of one copy of AML1, TP53, CMYC, RB1, D15Z1 and SNRPN: Neither the CAP samples nor the BPH samples were affected
[3]; AML1 locus
  frequency (%) of SD cells, Mean: Mean = 25.3%
[3]; CEN17 locus
  frequency (%) of SD cells, Mean: Mean = 22.7%
[3]; [5]
  replication pattern in cells derived from cancer patients: attenuate the replication pattern presented in cells derived from cancer patients towards the normal
[4]; AML1 locus
  frequency (%) of SD cells, Mean: Mean = 21.5%
[4]; CEN17 locus
  frequency (%) of SD cells, Mean: Mean = 20.9%
[4]; [5]
  replication pattern observed in normal genomes: not affecting
